Experimental data as given in patent US6194581A, “Substituted pyridines useful as modulators of acetylcholine receptors” (Merck & Co., Inc., priority 1998, dated 2001).
Where a name gives a salt, the structure may show the parent alone. Read-outs that look alike come from different tables or passages of the source.

What was measured:
[1] = target: T1, nicotinic acetylcholine receptor (Rattus norvegicus, UniProt P09483+P12390); assay: 3H-nicotine binding/displacement, rat cerebral membranes
T1 construct: Synaptic membranes were prepared by homogenizing the cortical tissue; from tissue; host or cells: cerebral cortex synaptic membranes of male Sprague-Dawley rats
Description: ^3 H-Nicotine binding to rat cerebral membranes was performed according to modifications of the method of Flyn and Mash (J. Neurochem. 47:1948 (1986)). ^3 H-Nicotine (80 ci/mmol; New England Nuclear Corporation, Boston, Mass.) was used as the ligand for nicotinic acetylcholine receptor binding assays. All other reagents were purchased from the Sigma Chemical Co. (St. Louis, Mo.).
Male Sprague-Dawley rats (250-400 gm) were sacrificed by decapitation, the brains removed and the cerebral cortex dissected on ice. Synaptic membranes were prepared by homogenizing the cortical tissue in 20 volumes of ice-cold modified Tris buffer (50 mM Tris pH 7.4, 120 mM NaCl, 5 mM KCl, 2 mM EDTA, 1 mM PMSF) with a polytron (20 sec at setting 5-6) followed by centrifugation (15 min at 25,000×g) at 4° C. The resultant pellet was rehomogenized and centrifuged twice. The final pellet was resuspended in ice-cold assay buffer (50 mM Tris pH 7.4, 120 mM NaCl, 5 mM KCl, 2 mM CaCl2, 1 MM MgCl2) at a concentration of membrane equivalent to 1 gm wet weight cortex per 10 ml buffer. After protein determination the final membrane preparation was diluted with buffer to 3 mg protein/ml. This membrane preparation was used in either the fresh state or frozen (-70° C.) then thawed.
The binding assay is performed manually using 96-well plates, or using a Biomek automated work station (Beckman Instrument Co.). ^3 H-Nicotine was diluted in assay buffer to give a final concentration of 1.9 nM. The Biomek automated work station was programmed to automatically transfer 750 μl of assay buffer with ^3 H-nicotine, 230 μl of membrane preparation and 20 μl of solution containing the compound of interest in assay buffer, DMSO, ethanol:DMSO (1:1) or appropriate vehicle to the 96-well plate. Atropine was added to the incubation buffer at a final concentration of 3 μM to block binding to muscarinic acetylcholine receptor sites. The plates were maintained on ice for 60 min and the tissue-bound radioactivity was separated from the free by rapid filtration in a Brandel Harvester onto GF/C filters presoaked in 0.5% polyethyleneimine for at least 2 hr. The filters were washed with 4×2 ml of ice-cold assay buffer and filters were transferred to vials to which 4 ml of scintillation cocktail was added. The radioactivity was measured in a LS-6500 Beckman Liquid Scintillation Counter in an autodpm mode. Data were analyzed by log-logit transformation or non-linear regression analysis (e.g., employing GraphPad Prism, available from GraphPad Software, San Diego, Calif.) to give IC50 values. Non-specific binding was defined by 10 μM cytisine.

[2] = target: muscarinic acetylcholine receptors; assay: 3H-QNB (quinuclidinyl benzilate) displacement, rat cerebral membranes; assay type: binding
[3] = tested on: rat striatal slices (3H-dopamine release); assay type: cell-based
Description: (§1) Measurement of ^3 H-dopamine release from rat striatal slices was performed according to the method of Sacaan et al. (J. Neurochem. 59:245 (1992)). Male Sprague-Dawley rats (250-300 g) were decapitated and the striata or olfactory tubercles dissected quickly on a cold glass surface. The tissue was chopped to a thickness of 300 μm with a McIlwain tissue chopper. After chopping again at right angles the tissue was dispersed and incubated for 10 min. at 37° C. in oxygenated Kreb's buffer. ^3 H-Dopamine (40 Ci/mmol, NEN- Dupont, Boston, Mass.) was added (50 nM) and the tissue was incubated for 30 min. in Kreb's buffer containing 10 μM pargyline and 0.5 mM ascorbic acid. Aliquots of the minced tissue were then transferred to chambers of a Brandel Superfusion system in which the tissue was supported on Whatman GF/B filter discs. The tissue was then superfused with buffer at a constant flow rate of 0.3 ml/min by means of a Brandel peristaltic pump. The perfusate was collected in plastic scintillation vials in 3-min fractions, and the radioactivity was estimated by scintillation spectrophotometry. The superfusate for the first 120 min was discarded. After two baseline fractions had been collected, the superfusion buffer was switched to fresh buffer with or without compound of interest. At the end of the experiment the filter and the tissue were removed, and the radiolabeled neurotransmitter content was estimated after extraction into scintillation fluid. The fractional effiux of radiolabeled neurotransmitter was estimated as the amount of radioactivity in the perfusate fraction relative to the total amount in the tissue.
(§2) The results of studies of the effects of an invention compound (as compared to the effect of nicotine) on the release of neurotransmitters from rat brain slices are presented in Table II. The results presented in the Table are expressed as the percent fractional release.

[4] = tested on: rat olfactory tubercles (3H-dopamine release); assay type: cell-based
Description: as §1, §2

[5] = tested on: rat prefrontal cortex slices (3H-norepinephrine release); assay type: cell-based
Description: as §1
(§3) Following essentially the same procedure as set forth in the preceding paragraph, the amount of ^3 H-norepinephrine released from rat hippocampus, thalamus and prefrontal cortex slices superfused with buffer containing (or lacking) compounds of interest was also measured.
as §2

[6] = tested on: rat thalamus slices (3H-norepinephrine release); assay type: cell-based
Description: as §1, §3, §2

[7] = tested on: rat hippocampus slices (3H-norepinephrine release); assay type: cell-based
Description: as §1, §3, §2

[8] = displacement of 1.9 nM 3H-nicotine, rat cerebral membranes, 3 μM atropine, read-out: IC50, Nicotine
[9] = displacement of 60 pM 3H-QNB, rat cerebral membranes
[10] = rat striatum slices, compound concentration not given
[11] = rat olfactory tubercles, compound concentration not given
[12] = rat prefrontal cortex slices, compound concentration not given
[13] = rat thalamus slices, compound concentration not given
[14] = rat hippocampus slices, compound concentration not given

T1 sequence (P09483 31-630): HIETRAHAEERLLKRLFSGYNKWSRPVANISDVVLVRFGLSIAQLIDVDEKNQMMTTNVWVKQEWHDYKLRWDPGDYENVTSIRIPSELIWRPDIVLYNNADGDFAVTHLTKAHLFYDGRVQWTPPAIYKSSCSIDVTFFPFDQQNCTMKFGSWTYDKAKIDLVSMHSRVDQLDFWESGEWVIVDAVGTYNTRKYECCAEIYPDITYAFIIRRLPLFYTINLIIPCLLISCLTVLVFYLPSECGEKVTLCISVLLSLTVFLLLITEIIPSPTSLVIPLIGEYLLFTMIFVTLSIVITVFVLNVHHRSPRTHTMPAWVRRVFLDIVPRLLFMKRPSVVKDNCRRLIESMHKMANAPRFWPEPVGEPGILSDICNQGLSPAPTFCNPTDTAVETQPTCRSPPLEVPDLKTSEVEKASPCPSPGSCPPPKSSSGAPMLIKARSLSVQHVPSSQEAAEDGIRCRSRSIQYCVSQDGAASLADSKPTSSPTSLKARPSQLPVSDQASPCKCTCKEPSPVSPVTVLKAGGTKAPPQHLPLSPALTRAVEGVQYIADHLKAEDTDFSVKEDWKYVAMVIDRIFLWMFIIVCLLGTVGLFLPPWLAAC
T1 sequence (P12390 26-500 limits assumed): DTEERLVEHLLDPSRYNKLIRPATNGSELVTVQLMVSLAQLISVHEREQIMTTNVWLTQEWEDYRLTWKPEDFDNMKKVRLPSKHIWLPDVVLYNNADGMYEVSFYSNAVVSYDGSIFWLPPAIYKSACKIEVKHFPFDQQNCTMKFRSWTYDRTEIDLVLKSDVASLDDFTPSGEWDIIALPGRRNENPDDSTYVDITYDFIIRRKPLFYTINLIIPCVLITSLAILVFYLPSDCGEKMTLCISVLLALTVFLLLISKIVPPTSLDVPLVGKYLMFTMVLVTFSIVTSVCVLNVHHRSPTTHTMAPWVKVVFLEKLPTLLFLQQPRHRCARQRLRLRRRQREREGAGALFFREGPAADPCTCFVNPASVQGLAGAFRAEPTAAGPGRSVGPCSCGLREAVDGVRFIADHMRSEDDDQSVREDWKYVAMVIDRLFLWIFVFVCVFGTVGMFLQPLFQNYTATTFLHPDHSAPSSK

Oc1ccc(-c2cncc(CN3CCCC3)c2)cc1Cl [5-(4-Hydroxy-3-chlorophenyl)-3-(N-pyrrolidinomethyl)pyridine]
IC50 [1, 8]: 0.043 µM | IC50 [2, 9]: > 10 µM | 3H-Dopamine, Striatum, percent fractional release [3, 10]: 6.00% | 3H-Dopamine, Olfactory Tubercles, percent fractional release [4, 11]: 8.75% | 3H-Norepinephrine, Prefrontal Cortex, percent fractional release [5, 12]: 1.82% | 3H-Norepinephrine, Thalamus, percent fractional release [6, 13]: 1.44% | 3H-Norepinephrine, Hippocampus, percent fractional release [7, 14]: 1.91%

Oc1ccc(-c2cncc(CN3CCCC3)c2)cc1 [5-(4-hydroxyphenyl)-3-(N-pyrrolidinomethyl)pyridine]
IC50 [1, 8]: 0.082 µM | IC50 [2, 9]: > 10 µM | 3H-Dopamine, Striatum, percent fractional release [3, 10]: 4.32% | 3H-Dopamine, Olfactory Tubercles, percent fractional release [4, 11]: 6.12% | 3H-Norepinephrine, Prefrontal Cortex, percent fractional release [5, 12]: 1.24% | 3H-Norepinephrine, Thalamus, percent fractional release [6, 13]: 2.36% | 3H-Norepinephrine, Hippocampus, percent fractional release [7, 14]: 1.06%

c1ccc(-c2cncc(CN3CCC3)c2)cc1 [5-Phenyl-3-(N-azetidinomethyl)pyridine fumarate]
IC50 [1, 8]: 1.2 µM | IC50 [2, 9]: 6 µM

c1ccc(-c2cncc(CN3CCCC3)c2)cc1 [5-Phenyl-3-(N-pyrrolidinomethyl)pyridine]
IC50 [1, 8]: 0.53 µM | IC50 [2, 9]: 11.2 µM | 3H-Dopamine, Striatum, percent fractional release [3, 10]: 2.48% | 3H-Dopamine, Olfactory Tubercles, percent fractional release [4, 11]: 3.68% | 3H-Norepinephrine, Prefrontal Cortex, percent fractional release [5, 12]: 1.43% | 3H-Norepinephrine, Thalamus, percent fractional release [6, 13]: 1.42% | 3H-Norepinephrine, Hippocampus, percent fractional release [7, 14]: 0.74%

C#Cc1cncc(CN2CCCC2)c1 [5-ethynyl-3-(N-pyrrolidinomethyl)pyridine]
IC50 [1]: 0.041 µM | IC50 [2]: > 100 µM | 3H-Dopamine, Striatum, percent fractional release [3, 10]: 2.09% | 3H-Dopamine, Olfactory Tubercles, percent fractional release [4, 11]: 0.91% | 3H-Norepinephrine, Prefrontal Cortex, percent fractional release [5, 12]: 0.84% | 3H-Norepinephrine, Thalamus, percent fractional release [6, 13]: 0.67% | 3H-Norepinephrine, Hippocampus, percent fractional release [7, 14]: 0.97%

c1cncc(CNC2CC2)c1 [N-Cyclopropyl-3-picolylamine]
IC50 [1, 8]: 40 µM | IC50 [2, 9]: > 100 µM

CN(Cc1cccnc1)C1CC1 [N-Methyl-N-cyclopropyl-3-picolylamine]
IC50 [1, 8]: 16 µM | IC50 [2, 9]: > 100 µM

CN(CCCc1ccccc1)Cc1cccnc1 [N-Methyl-N-phenylpropyl-3-picolylamine]
IC50 [1, 8]: 34 µM | IC50 [2, 9]: 36 µM

c1ccc(CCCNCc2cccnc2)cc1 [N-Phenylpropyl-3-picolylamine]
IC50 [1, 8]: 20 µM | IC50 [2, 9]: 29 µM

CN1CCCC1c1cccnc1 (stereo not drawn) [Nicotine, reference compound]
3H-Dopamine, Striatum, percent fractional release [3]: 2.3 ± 0.7 | 3H-Dopamine, Olfactory Tubercles, percent fractional release [4]: 2.7 ± 0.4 | 3H-Norepinephrine, Prefrontal Cortex, percent fractional release [5]: 2.2 ± 0.2 | 3H-Norepinephrine, Thalamus, percent fractional release [6]: 1.7 | 3H-Norepinephrine, Hippocampus, percent fractional release [7]: 8.2 ± 1.5

CC(c1cccnc1)N(C)C (stereo not drawn) [α-Methyl-N,N-dimethyl-3-picolylamine]
IC50 [1, 8]: 1.9 µM | displacement of ligand with 100 μM of compound (Quinuclidinyl benzilate) ([2]; 100 μM compound, 3H-QNB, rat cerebral membranes): Less than 20%

CC(NC1CC1)c1cccnc1 (stereo not drawn) [α-Methyl-N-cyclopropyl-3-picolylamine]
IC50 [1, 8]: > 100 µM | IC50 [2, 9]: > 100 µM

CC(C)NC(C)c1cccnc1 (stereo not drawn) [α-Methyl-N-isopropyl-3-picolylamine]
IC50 [1, 8]: 19 µM | IC50 [2, 9]: > 100 µM

CNC(C)c1cccnc1 (stereo not drawn) [α-Methyl-N-methyl-3-picolylamine]
IC50 [1, 8]: 3.6 µM | IC50 [2, 9]: > 100 µM
